Data: patent US20240116985A1, “STAPLED PEPTIDES AND METHODS THEREOF” (priority 2020, published 2024)

Columns and labels:
[1] = target: T1, full-length beta-Catenin (Uniprot ID P35222) (Homo sapiens, UniProt P35222); test: Fluorescence polarization IC50 (beta-catenin / 5FAM-TCF4 10-53 competition); format: binding; details: fluorescence polarization; read-out: beta-Catenin FP IC50
T1 construct: 10 nM full-length beta-Catenin (Uniprot ID P35222)
T1 sequence (P35222 1-781): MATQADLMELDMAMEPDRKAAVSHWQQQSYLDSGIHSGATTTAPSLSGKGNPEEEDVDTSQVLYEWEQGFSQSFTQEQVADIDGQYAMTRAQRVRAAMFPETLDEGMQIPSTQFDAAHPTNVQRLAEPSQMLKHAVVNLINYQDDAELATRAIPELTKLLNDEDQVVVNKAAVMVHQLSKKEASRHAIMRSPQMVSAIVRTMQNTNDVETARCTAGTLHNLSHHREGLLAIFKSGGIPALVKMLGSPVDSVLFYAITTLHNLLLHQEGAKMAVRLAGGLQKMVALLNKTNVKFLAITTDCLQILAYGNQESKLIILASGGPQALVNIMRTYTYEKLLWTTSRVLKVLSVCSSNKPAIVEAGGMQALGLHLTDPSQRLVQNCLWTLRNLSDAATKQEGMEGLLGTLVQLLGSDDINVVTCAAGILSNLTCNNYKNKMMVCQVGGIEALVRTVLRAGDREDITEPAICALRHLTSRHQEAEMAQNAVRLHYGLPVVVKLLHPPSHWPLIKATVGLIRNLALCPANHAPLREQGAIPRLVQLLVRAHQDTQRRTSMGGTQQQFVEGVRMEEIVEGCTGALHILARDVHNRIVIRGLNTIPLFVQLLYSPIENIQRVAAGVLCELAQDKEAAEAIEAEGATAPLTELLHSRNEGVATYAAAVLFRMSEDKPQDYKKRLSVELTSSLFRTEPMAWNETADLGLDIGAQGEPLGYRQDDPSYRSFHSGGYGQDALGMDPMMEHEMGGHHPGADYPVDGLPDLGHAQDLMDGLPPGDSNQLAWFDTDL

[2] = target: T2, beta-catenin/TCF4 engagement (Homo sapiens, UniProt P35222); test: Nano-BRET target engagement assay (B-cat-Halo & TCF4-Luc in HEK293 cells); format: cell-based; details: absolute IC50; read-out: NanoBRET Abs IC50
T2 construct: expressed in transfected cells; host or cells: HEK293
T2 sequence (P35222 1-781): T1 sequence (P35222 1-781)

[3] = system: COLO320DM cells; format: cell-based; details: COLO320DM cells, absolute IC50; read-out: COLO320DM Proliferation Abs IC50
Procedure: COLO320DM proliferation assay IC50: In some embodiments, inhibition of cell proliferation by provided technologies were assessed using cell lines related to or from certain conditions, disorders or diseases. In some embodiments, cell proliferation was assessed in COLO320DM cells. In some embodiments, assessment was performed using the following procedure: On Day 1, cultured COLO320DM cells in a T75 flask were trypsinized in 3 mL of 0.25% trypsin/EDTA for 5 min and quenched with 10 mL RPMI-1640+4% HI FBS assay media. The cells were spun down at 1200 rpm for 5 min, the cell pellet collected and re-suspended at 5000 cells/mL in assay media. Using a Combi liquid handler, cells were dispensed (50 uL, 250 cells/well) into three 384 well plates. Plates were incubated at 37° C., […]. On day 2, compounds were added. A liquid handling system was used to prepare the compound dilution and dispense compound into assay plates. The compounds were serially diluted 1/2 in 90% DMSO to create a 7 point dose curve. From compound plate, 100 nL of compound were dispensed directly into wells of the assay plates to create a dose curve starting at 20 uM and ending at 313 nM. Assay plates were incubated at 37° C., […]. On day 6, assay plates were removed from the incubator and allowed to sit at room temperature for 30 min. Using a liquid handler, 20 uL of CellTiter Glo reagent was added to each well. The assay plates were shaken for 2 min and allowed to sit on the bench for 10-15 minutes. The assay plates were read using the CellTiter Glo protocol on a GloMax microplate reader, and the data analyzed using GraphPad Prism.

| SMILES | IC50 [1] | IC50 [2] | IC50 [3] |
| --- | --- | --- | --- |
| CC(=O)N1CCC[C@]12CC=CCCCC1(CCCC=CCCCOC(=O)N3CC[C@@](C(=O)N[C@@H](Cc4ccsc4)C(=O)N[C@@H](Cc4csc5ccccc45)C(=O)N[C@@H](CC(N)=O)C(=O)N[C@@H](CC(C)C)C(N)=O)(C3)NC(=O)[C@H](CC(C)C)NC(=O)[C@H](Cc3ccccc3)NC(=O)[C@H](C)NC(=O)[C@H](C)NC(=O)[C@H](Cc3cccc(C(=O)O)c3)NC(=O)[C@H](CC(=O)O)NC1=O)NC(=O)[C@H](CC(C)(C)C)NC(=O)[C@H](CC(=O)O)NC2=O (stereo partly drawn) [I-2274, Ac-PL3-Asp-Npg-B5-Asp-3COOHF-Ala-Ala-Phe-Leu-PyrS2-3Thi-BztA-Asn-Leu-NH2] | 10 nM | 2000 nM | 6200 nM |
| CC(=O)N1CCC[C@]12CC=CCCCC1(CCCC=CCCCOC(=O)N3CC[C@@](C(=O)N[C@@H](Cc4ccccc4C(F)(F)F)C(=O)N[C@@H](Cc4csc5ccccc45)C(=O)N[C@@H](CCC(=O)N(C)C)C(N)=O)(C3)NC(=O)[C@H](CC(C)C)NC(=O)[C@H](Cc3ccccc3)NC(=O)[C@H](C)NC(=O)[C@H](CCC(=O)N(C)C)NC(=O)[C@H](Cc3cccc(C(=O)O)c3)NC(=O)[C@H](CC(=O)O)NC1=O)NC(=O)[C@H](CC(C)(C)C)NC(=O)[C@H](CC(=O)O)NC2=O (stereo partly drawn) [I-2300, Ac-PL3-Asp-Npg-B5-Asp-3COOHF-[NMe2]GlnR-Ala-Phe-Leu-PyrS2-2F3MeF-BztA-INMe2]GlnR-NH2] | 6 nM | 1200 nM | > 20000 nM |
| CC(=O)N1CCC[C@]12CC=CCCCC1(CCCC=CCCCOC(=O)N3CC[C@@](C(=O)N[C@@H](Cc4ccccc4C(F)(F)F)C(=O)N[C@@H](Cc4csc5ccccc45)C(=O)N[C@@H](C)C(N)=O)(C3)NC(=O)[C@H](CC(C)C)NC(=O)[C@H](Cc3ccccc3)NC(=O)[C@H](C)NC(=O)[C@H](CCC(=O)N3CCOCC3)NC(=O)[C@H](Cc3cccc(C(=O)O)c3)NC(=O)[C@H](CC(=O)O)NC1=O)NC(=O)[C@H](CC(C)(C)C)NC(=O)[C@H](CC(=O)O)NC2=O (stereo partly drawn) [I-2315, Ac-PL3-Asp-Npg-B5-Asp-3COOHF-[Morph]GlnR-Ala-Phe-Leu-PyrS2-2F3MeF-BztA-Ala-NH2] | 5 nM | 1200 nM | > 20000 nM |
| CC(=O)N1CCC[C@]12CC=CCCCC1(CCCC=CCCCOC(=O)N3CC[C@@](C(=O)N[C@@H](Cc4ccccc4C(F)(F)F)C(=O)N[C@@H](Cc4csc5ccccc45)C(=O)N[C@@H](C)C(N)=O)(C3)NC(=O)[C@H](CC(C)C)NC(=O)[C@H](Cc3ccccc3)NC(=O)[C@H](C)NC(=O)[C@H](CCC(=O)N3CCN(CC(F)(F)F)CC3)NC(=O)[C@H](Cc3cccc(C(=O)O)c3)NC(=O)[C@H](CC(=O)O)NC1=O)NC(=O)[C@H](CC(C)(C)C)NC(=O)[C@H](CC(=O)O)NC2=O (stereo partly drawn) [I-2316, Ac-PL3-Asp-Npg-B5-Asp-3COOHF-[TfePpz]GlnR-Ala-Phe-Leu-PyrS2-2F3MeF-BztA-Ala-NH2] | 11 nM | 1600 nM | > 20000 nM |
| CC(=O)N1CCC[C@]12CC=CCCCC1(CCCC=CCCCOC(=O)N3CC[C@@](C(=O)N[C@@H](Cc4ccccc4C(F)(F)F)C(=O)N[C@@H](Cc4csc5ccccc45)C(=O)N[C@@H](C)C(N)=O)(C3)NC(=O)[C@H](CC(C)C)NC(=O)[C@H](Cc3ccccc3)NC(=O)[C@H](C)NC(=O)[C@H](CCC(=O)N3CCNC(=O)C3)NC(=O)[C@H](Cc3cccc(C(=O)O)c3)NC(=O)[C@H](CC(=O)O)NC1=O)NC(=O)[C@H](CC(C)(C)C)NC(=O)[C@H](CC(=O)O)NC2=O (stereo partly drawn) [I-2318, Ac-PL3-Asp-Npg-B5-Asp-3COOHF-[2OxoPpz]GlnR-Ala-Phe-Leu-PyrS2-2F3MeF-BztA-Ala-NH2] | 5 nM | 1800 nM | > 20000 nM |
| CC(=O)N1CCC[C@]12CC=CCCCC1(CCCC=CCCCOC(=O)N3CC[C@@](C(=O)N[C@@H](Cc4ccccc4C(F)(F)F)C(=O)N[C@@H](Cc4csc5ccccc45)C(=O)N[C@@H](C)C(N)=O)(C3)NC(=O)[C@H](CC(C)C)NC(=O)[C@H](Cc3ccccc3)NC(=O)[C@H](C)NC(=O)[C@H](CCC(=O)N3Cc4ccccc4C3)NC(=O)[C@H](Cc3cccc(C(=O)O)c3)NC(=O)[C@H](CC(=O)O)NC1=O)NC(=O)[C@H](CC(C)(C)C)NC(=O)[C@H](CC(=O)O)NC2=O (stereo partly drawn) [I-2320, Ac-PL3-Asp-Npg-B5-Asp-3COOHF-[isoindoline]GlnR-Ala-Phe-Leu-PyrS2-2F3MeF-BztA-Ala-NH2] | 29 nM | 2700 nM | > 20000 nM |
| COCCN(CCOC)C(=O)CC[C@@H]1NC(=O)[C@H](Cc2cccc(C(=O)O)c2)NC(=O)[C@H](CC(=O)O)NC(=O)C2(CCCC=CCCCOC(=O)N3CC[C@@](C(=O)N[C@@H](Cc4ccccc4C(F)(F)F)C(=O)N[C@@H](Cc4csc5ccccc45)C(=O)N[C@@H](C)C(N)=O)(C3)NC(=O)[C@H](CC(C)C)NC(=O)[C@H](Cc3ccccc3)NC(=O)[C@H](C)NC1=O)CCCC=CC[C@]1(CCCN1C(C)=O)C(=O)N[C@@H](CC(=O)O)C(=O)N[C@@H](CC(C)(C)C)C(=O)N2 (stereo partly drawn) [I-2322, Ac-PL3-Asp-Npg-B5-Asp-3COOHF-[bismethoxyethylamine]GlnR-Ala-Phe-Leu-PyrS2-2F3MeF-BztA-Ala-NH2] | 7 nM | 1800 nM | > 20000 nM |
| CC(=O)N1CCC[C@]12CC=CCCCC1(CCCC=CCCCOC(=O)N3CC[C@@](C(=O)N[C@@H](Cc4ccccc4C(F)(F)F)C(=O)N[C@@H](Cc4csc5ccccc45)C(=O)N[C@@H](CCC(N)=O)C(=O)N[C@@H](CC(C)C)C(=O)N[C@@H](CC(C)C)C(N)=O)(C3)NC(=O)[C@H](CC(C)C)NC(=O)[C@H](Cc3ccccc3)NC(=O)[C@H](C)NC(=O)[C@H](C)NC(=O)[C@H](Cc3cccc(C(=O)O)c3)NC(=O)[C@H](CC(=O)O)NC1=O)NC(=O)[C@H](CC(C)(C)C)NC(=O)[C@H](CC(=O)O)NC2=O (stereo partly drawn) [I-2380, Ac-PL3-Asp-Npg-B5-Asp-3COOHF-Ala-Ala-Phe-Leu-PyrS2-2F3MeF-BztA-Gln-Leu-Leu-NH2] | 330 nM | 2700 nM | > 20000 nM |
| CC(=O)N1CCC[C@]12CC=CCCCC1(CCCC=CCCCOC(=O)N3CC[C@@](C(=O)N[C@@H](Cc4ccccc4C(F)(F)F)C(=O)N[C@@H](Cc4csc5ccccc45)C(=O)N[C@@H](CCC(=O)N(C)C)C(N)=O)(C3)NC(=O)[C@H](CC(C)C)NC(=O)[C@H](Cc3ccccc3)NC(=O)[C@H](C)NC(=O)[C@H](C)NC(=O)[C@H](Cc3cccc(C(=O)O)c3)NC(=O)[C@H](CC(=O)O)NC1=O)NC(=O)[C@H](CC(C)(C)C)NC(=O)[C@H](CC(=O)O)NC2=O (stereo partly drawn) [I-2532, Ac-PL3-Asp-Npg-B5-Asp-3COOHF-Ala-Ala-Phe-Leu-PyrS2-2F3MeF-BztA-Me2Gln-NH2] | 14 nM | 4500 nM | > 20000 nM |
| CCCC[C@@H]1NC(=O)[C@H](Cc2ccccc2)NC(=O)[C@H](C)NC(=O)[C@H](C)NC(=O)[C@H](Cc2cccc(C(=O)O)c2)NC(=O)[C@H](CC(=O)O)NC(=O)C2(CCCC=CCCCOC(=O)N3CC[C@@](C(=O)N[C@@H](Cc4ccccc4C(F)(F)F)C(=O)N[C@@H](Cc4csc5ccccc45)C(=O)N[C@@H](CCC(=O)N(C)C)C(N)=O)(C3)NC1=O)CCCC=CC[C@]1(CCCN1C(C)=O)C(=O)N[C@@H](CC(=O)O)C(=O)N[C@@H](CC(C)(C)C)C(=O)N2 (stereo partly drawn) [I-2533, Ac-PL3-Asp-Npg-B5-Asp-3COOHF-Ala-Ala-Phe-nLeu-PyrS2-2F3MeF-BztA-Me2Gln-NH2] | 28 nM | 6200 nM | > 20000 nM |
